Results published in US20090175882A1, “METHODS AND COMPOSITIONS FOR TREATING HYPERALGESIA” (IRM LLC, priority 2006, published 2009).
“Also recorded” adds a separate entry of the source.

Key:
[1] = system: bradykinin (BK)-induced heat hyperalgesia; experiment: Bradykinin-induced heat hyperalgesia; type: in vivo; conditions: mice
Description: (§1) Red symbols represent responses from CFA-injected (A), or BK-injected (B) hindpaws while blue symbols represent responses from the other noninjected hindpaws of the same animals. Circles represent responses upon compound 18 treatment, whereas triangles represent responses upon vehicle treatments (A-C). Von Frey thresholds are measured and averaged. (***p<0.001, *p<0.05, two-tailed Student's T-test). […] Red symbols represent responses from CFA-injected hindpaws while blue symbols represent responses from the other non-injected hindpaws of the same animals. Number of flicks, licks, paw raises for 10 min at each time point are counted and averaged (n=8, *p<0.05, two-tailed Student's T-test).
Behavioral assays: Mice (C57B16 Mus musculus) of 8-10 weeks in age and 150-250 g Sprague Dawley rats were used for all behavioral assays. Animals were acclimated for 20-60 min to their testing environment prior to all experiments. Students' T test was used for all statistical calculations. All error bars represent standard error of the mean (SEM). Thermal plates, Hargreaves method (Plantar Analgesia meter) and Von Frey apparatus (Dynamic Plantar Aesthesiometer) were from UGO Basile and Columbus instruments. […] Briefly, mice were acclimated for 60 min to their testing environment prior to all experiments. Baseline responses were measured first and then 10 nM BK was injected to the skin of left hindpaws. Von Frey threshold or paw withdrawal latency was measured at 5, 15 and 30 min post injection. 1 mM of compound 18 was sometimes coinjected to left hindpaws to test its analgesic effect. For CFA-induced hyperalgesia test, 5 μg CFA in 10 uL was injected into mice (Caterina et al., Science 288:306, 2000; and Cao et al., Nature 392:390, 1998) and 50 μg in 100 uL (1:1 emulsion of mineral oil and saline; Obata et al., J Clin Invest 115:2393, 2005) was injected into rats and in 24 hrs measurements were performed. Before the measurement, the animals were re-acclimated to the environment for 20-60 min. […]

rat TRPA1 = rat TRPA1 (Rattus norvegicus, UniProt Q6RI86); experiment: Block of rat TRPA1 (data not shown); type: cell-based
[2] = system: BK-induced nociceptive mechanical behaviours; experiment: Bradykinin-induced mechanical hyperalgesia (Von Frey threshold); type: in vivo; conditions: short term hyperalgesia model, 1 mM coinjected, mice
Description: as §1
Behavioral assays: Mice (C57B16 Mus musculus) of 8-10 weeks in age and 150-250 g Sprague Dawley rats were used for all behavioral assays. Animals were acclimated for 20-60 min to their testing environment prior to all experiments. Students' T test was used for all statistical calculations. All error bars represent standard error of the mean (SEM). Thermal plates, Hargreaves method (Plantar Analgesia meter) and Von Frey apparatus (Dynamic Plantar Aesthesiometer) were from UGO Basile and Columbus instruments. […] Baseline responses were measured first and then 10 nM BK was injected to the skin of left hindpaws. Von Frey threshold or paw withdrawal latency was measured at 5, 15 and 30 min post injection. […]

TRPA1 [3] = target: T1, TRPA1 (Homo sapiens, UniProt O75762); experiment: Cinnamaldehyde-induced currents in inside-out excised patches of Xenopus oocytes; type: cell-based; set-up: expressed in transfected cells; host or cells: Xenopus oocytes injected with cRNA (pOX vector); conditions: coapplication with cinnamaldehyde, inside-out macropatches
Target sequence in this assay (O75762 whole entry): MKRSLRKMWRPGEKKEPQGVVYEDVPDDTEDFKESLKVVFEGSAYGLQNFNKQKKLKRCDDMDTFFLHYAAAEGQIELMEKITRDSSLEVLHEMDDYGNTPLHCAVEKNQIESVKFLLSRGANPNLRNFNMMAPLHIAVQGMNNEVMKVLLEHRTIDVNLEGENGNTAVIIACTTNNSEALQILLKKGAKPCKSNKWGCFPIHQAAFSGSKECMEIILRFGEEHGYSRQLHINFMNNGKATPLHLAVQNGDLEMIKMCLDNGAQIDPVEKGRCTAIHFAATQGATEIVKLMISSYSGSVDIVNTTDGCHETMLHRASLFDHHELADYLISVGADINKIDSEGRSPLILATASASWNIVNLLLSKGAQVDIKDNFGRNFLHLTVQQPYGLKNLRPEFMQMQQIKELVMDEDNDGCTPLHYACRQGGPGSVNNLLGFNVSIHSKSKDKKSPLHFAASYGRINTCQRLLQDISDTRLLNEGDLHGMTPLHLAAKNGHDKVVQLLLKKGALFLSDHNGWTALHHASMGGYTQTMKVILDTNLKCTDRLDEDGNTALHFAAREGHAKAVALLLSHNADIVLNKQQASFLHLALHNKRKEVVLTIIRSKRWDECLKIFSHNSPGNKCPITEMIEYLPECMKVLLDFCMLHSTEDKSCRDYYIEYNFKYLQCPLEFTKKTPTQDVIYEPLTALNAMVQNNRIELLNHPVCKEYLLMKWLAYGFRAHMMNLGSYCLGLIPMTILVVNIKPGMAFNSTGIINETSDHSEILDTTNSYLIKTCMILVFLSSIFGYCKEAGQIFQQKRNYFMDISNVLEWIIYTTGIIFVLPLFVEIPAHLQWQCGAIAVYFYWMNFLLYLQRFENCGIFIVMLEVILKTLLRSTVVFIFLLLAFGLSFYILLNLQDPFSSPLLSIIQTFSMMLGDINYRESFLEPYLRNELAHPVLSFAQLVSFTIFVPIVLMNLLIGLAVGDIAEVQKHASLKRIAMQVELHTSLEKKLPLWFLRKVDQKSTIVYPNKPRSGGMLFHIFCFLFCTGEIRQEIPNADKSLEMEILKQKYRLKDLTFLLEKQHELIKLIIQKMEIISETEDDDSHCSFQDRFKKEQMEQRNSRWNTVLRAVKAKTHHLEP
Description: (C) Current-voltage relationship of TRPA1.
Mature 17 defolliculated Xenopus oocytes were injected with 50 nl of human TRPA1 cRNA at ˜1 μg/μl. Oocytes were incubated in ND96 (96 mM NaCl, 2 mM KCl, 1 mM MgCl2, 1.8 mM CaCl2, 5 mM HEPES, pH 7.4, supplemented with Na-pyruvate (2.5 mM), penicillin (100 u/ml) and streptomycin (100 μg/ml) 3-5 days to ensure expression. Vitelline envelopes were mechanically removed prior to recording. Recordings were made under voltage clamp from excised patches in the inside-out configuration at room temperature with 1-1.5 MΩ pipettes. The bath ground was isolated using an agar bridge. Capacitance and series resistance were compensated and solutions that eliminate native calcium-activated chloride currents were used (Patch electrode (in mM): 140 NaMES, 4 NaCl, 1 EGTA, 10 HEPES, pH 7.2; bath solution: 140 KMES, 4 KCl, 1 EGTA, 10 HEPES, pH 7.2). Compounds were added to the bath solution. Currents were recorded using a Multiclamp 700B amplifier and the pCLAMP acquisition suite.

TRPA1 [4] = target: T1, TRPA1; experiment: TRPA1 block, test not specified; conditions: summary statement
Target sequence in this assay (O75762 whole entry, species assumed): as the sequence (O75762 whole entry) above

TRPM8 = target: T2, TRPM8 (Mus musculus, UniProt Q8R4D5); experiment: ThermoTRP selectivity test; type: cell-based; conditions: at 50 μM (data not shown)
T2 construct: expressed in transfected cells; not restated for the selectivity test

[5] = system: cinnamaldehyde-induced nociceptive events; experiment: Acute nociceptive behaviour after hindpaw injection of cinnamaldehyde; type: in vivo, mice; conditions: cinnamaldehyde 16.4 mM coinjected with compound 18 1 mM
Description: Time spent licking and flicking hindpaws injected with cinnamaldehyde (16.4 mM) or capsaicin (0.328 mM) is measured for 5 min and compared with the hindpaw of another animal coinjected with compound 18 (1 mM). Numbers of cases for each experiment from the left is 8, 8, 6 and 6, respectively (***p<0.001, *p<0.05, two-tailed Student's T-test).
We next set out to test if acute block of TRPA1 had any physiological consequence on pain sensation. […] To test the efficacy and specificity of compound 18 in vivo, we coinjected cinnamaldehyde and compound 18 in hindpaw of mice.
Behavioral assays: Mice (C57B16 Mus musculus) of 8-10 weeks in age and 150-250 g Sprague Dawley rats were used for all behavioral assays. Animals were acclimated for 20-60 min to their testing environment prior to all experiments. Students' T test was used for all statistical calculations. All error bars represent standard error of the mean (SEM). […] Briefly, mice were acclimated for 60 min to their testing environment prior to all experiments.

TRPV1 = target: T3, TRPV1 (Rattus norvegicus, UniProt O35433); experiment: ThermoTRP selectivity test; type: cell-based; conditions: at 50 μM (data not shown)
T3 construct: expressed in transfected cells; not restated for the selectivity test

[6] = system: CFA-induced cold hyperalgesia; experiment: CFA-induced cold hyperalgesia on a 5° C. plate; type: in vivo; conditions: rats
mouse TRPA1 = target: T4, mouse TRPA1 (Mus musculus, UniProt Q8BLA8); experiment: Whole-cell electrophysiology of TRPA1-expressing CHO cells (pressure, hyperosmolarity, cold); type: cell-based; conditions: data not shown
T4 construct: expressed in transfected cells; host or cells: CHO cells (tetracycline-induced for PatchXpress; mTRPA1-pcDNA5 named for the transient labelling experiment)
Source text: We tested if TRPA1 is activated by mechanical forces. The electrophysiological behavior of thermoTRP-expressing Chinese Hamster Ovary (CHO) cells was investigated with two different assays of mechanical stress—pressure application using the recording pipette and changes in external osmolarity.
Mechanosensory neurons are often classified as high- or low-threshold, characterizing responses to pain and touch, respectively. We tested the mechanical threshold of TRPA1 by applying a wide range of negative pipette pressures (FIG. 1C). TRPA1-expressing CHO cells are activated at −90 mmHg or higher, consistent with native high-threshold mechanical receptors involved in sensing pain (Cho et al., J Neurosci 22:1238, 2002). […] Gadolinium (Gd^3+) is considered a blocker of native mechanically-gated ion channels in animal tissues (Martinac et al., Physiol Rev 81:685, 2001). […] FM1-43 is a styryl dye that specifically labels sensory cells by entering through open transduction channels. […] Furthermore, it was observed that 10 μM of FM1 -43 was able to block cinnamaldehyde-induced currents in TRPA1-expressing CHO cells (n=8).
To ensure that the mechanical response we observe is not an artifact of heterologous expression system, we tested if native TRPA1-expressing neurons also respond to such stimuli. 5/6 cinnamaldehyde-sensitive (presumptive TRPA1-expressing) DRG neurons responded to an application of −200 mmHg of suction, while 0/21 cinnamaldehyde insensitive neurons responded (16 of 21 were capsaicin-sensitive) (FIG. 2B). Millimolar camphor was recently reported to inhibit basal currents and cold or agonist-activation of TRPA1.
Mammalian cell electrophysiology: ThermoTRP-expressing CHO cells (rat TRPV1, rat TRPV2, mouse TRPV3, rat TRPV4, mouse TRPM8, and mouse TRPA1), control CHO cells, and cultured rat DRG neurons were prepared as described in Story et al., Cell 112:819, 2003; and Bandell et al., Neuron 41:849, 2004. Electrophysiological recordings were performed as described in Bandell et al., Neuron 41:849, 2004. Briefly, CHO cells were clamped at −60 mV and 0.8 second ramps from −80 mV to +80 mV were run every 4 seconds. Currents from DRG neurons were recorded at −60 mV and for their current-voltage curve, 300 ms voltage step at +20 mV was used 40 ms before 800 ms ramp from -80 mV to +80 mV to minimize contamination of voltage gated Na^+ or Ca^2+ current. The pipette solution for temperature and hyperosmotic experiments consisted of (in mM) 140 CsCl, 5 EGTA, 10 HEPES, 2 MgATP, 0.2 NaGTP, titrated to pH 7.4 with CsOH. The base external solution for these experiments consisted of (in mM) 140 NaCl, 5KCl, 10 HEPES, 2CaCl2, 1MgCl2, titrated to pH 7.4 with NaOH. Mannitol was used to adjust osmolarity for hypertonic solutions. For mouse TRPV3 and rat TRPV2, external calcium was replaced with 5 mM EGTA. Gluconate was substituted for chloride in (±)-pressure and hypotonic experiments to eliminate the potential for endogenous swelling-activated chloride currents. For these experiments, pipette solution (295 mOsm) consisted of (in mM) 125 Cs-gluconate, 15CsCl, 5 EGTA, 10 HEPES, 2 MgATP, 0.2NaGTP, titrated to pH 7.4 with CsOH. The external solution consisted of (in mM) 90 Na-gluconate, 10 NaCl, 5 K-gluconate, 10 HEPES, 2 CaCl2, 1 MgCl2, titrated to pH 7.4 with NaOH. Osmolarity was adjusted with mannitol to 220 mOsm (hypotonic) or 298 mOsm 15 (isotonic). (±)-Pressure was hydrostatically delivered by the recording pipette using syringe pumping (Hamill et al., Annu Rev Physiol 59:621, 1997) and monitored through Pressure Monitor (World Precision Instruments). Warner temperature controller (TC-324B and CL-100) was used for the heating or cooling the perfused bath solutions. […] The number of cells (n) tested with -100 mmHg to −300 mmHg, ˜+100 mmHg, 450 mOsm, and 220 mOsm for each cell type, respectively, are: CHO cells, n=7, 14, 5, 12; TRPV1, n=6, 5, 7, 5; TRPV2, n=4, 5, 3, 5; TRPV3, n=3, 2, 3, 0; TRPM8, n=12, 4, 10, 0. […]

T4 sequence (Q8BLA8 whole entry): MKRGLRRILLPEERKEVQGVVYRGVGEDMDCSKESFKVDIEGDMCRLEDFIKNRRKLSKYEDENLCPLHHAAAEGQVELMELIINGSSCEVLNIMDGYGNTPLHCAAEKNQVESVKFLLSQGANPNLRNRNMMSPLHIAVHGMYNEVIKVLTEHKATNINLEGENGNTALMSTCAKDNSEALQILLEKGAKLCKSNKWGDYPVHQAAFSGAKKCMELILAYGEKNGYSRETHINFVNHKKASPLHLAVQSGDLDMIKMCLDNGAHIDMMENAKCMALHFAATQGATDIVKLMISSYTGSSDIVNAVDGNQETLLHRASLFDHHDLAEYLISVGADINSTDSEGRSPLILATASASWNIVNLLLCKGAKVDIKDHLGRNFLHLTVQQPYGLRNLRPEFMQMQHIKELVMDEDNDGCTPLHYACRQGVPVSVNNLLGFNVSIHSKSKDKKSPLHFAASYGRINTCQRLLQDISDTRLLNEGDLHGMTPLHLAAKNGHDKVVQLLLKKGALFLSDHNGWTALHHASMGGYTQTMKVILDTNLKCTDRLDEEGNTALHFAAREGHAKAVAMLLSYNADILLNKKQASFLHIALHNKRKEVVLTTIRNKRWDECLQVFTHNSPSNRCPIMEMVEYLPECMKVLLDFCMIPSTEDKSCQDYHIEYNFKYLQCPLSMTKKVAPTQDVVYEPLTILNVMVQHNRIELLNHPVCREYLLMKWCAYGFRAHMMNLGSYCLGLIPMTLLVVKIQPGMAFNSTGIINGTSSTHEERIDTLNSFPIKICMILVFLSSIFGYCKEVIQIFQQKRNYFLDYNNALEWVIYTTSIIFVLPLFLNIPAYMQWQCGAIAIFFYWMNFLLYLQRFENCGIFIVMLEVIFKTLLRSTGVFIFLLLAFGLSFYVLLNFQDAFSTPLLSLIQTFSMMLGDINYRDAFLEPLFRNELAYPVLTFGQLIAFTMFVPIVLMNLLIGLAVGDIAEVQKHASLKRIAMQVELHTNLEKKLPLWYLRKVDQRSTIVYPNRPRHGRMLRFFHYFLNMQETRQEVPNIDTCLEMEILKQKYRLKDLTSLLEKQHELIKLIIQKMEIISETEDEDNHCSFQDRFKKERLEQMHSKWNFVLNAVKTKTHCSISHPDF
T2 sequence (Q8R4D5 whole entry): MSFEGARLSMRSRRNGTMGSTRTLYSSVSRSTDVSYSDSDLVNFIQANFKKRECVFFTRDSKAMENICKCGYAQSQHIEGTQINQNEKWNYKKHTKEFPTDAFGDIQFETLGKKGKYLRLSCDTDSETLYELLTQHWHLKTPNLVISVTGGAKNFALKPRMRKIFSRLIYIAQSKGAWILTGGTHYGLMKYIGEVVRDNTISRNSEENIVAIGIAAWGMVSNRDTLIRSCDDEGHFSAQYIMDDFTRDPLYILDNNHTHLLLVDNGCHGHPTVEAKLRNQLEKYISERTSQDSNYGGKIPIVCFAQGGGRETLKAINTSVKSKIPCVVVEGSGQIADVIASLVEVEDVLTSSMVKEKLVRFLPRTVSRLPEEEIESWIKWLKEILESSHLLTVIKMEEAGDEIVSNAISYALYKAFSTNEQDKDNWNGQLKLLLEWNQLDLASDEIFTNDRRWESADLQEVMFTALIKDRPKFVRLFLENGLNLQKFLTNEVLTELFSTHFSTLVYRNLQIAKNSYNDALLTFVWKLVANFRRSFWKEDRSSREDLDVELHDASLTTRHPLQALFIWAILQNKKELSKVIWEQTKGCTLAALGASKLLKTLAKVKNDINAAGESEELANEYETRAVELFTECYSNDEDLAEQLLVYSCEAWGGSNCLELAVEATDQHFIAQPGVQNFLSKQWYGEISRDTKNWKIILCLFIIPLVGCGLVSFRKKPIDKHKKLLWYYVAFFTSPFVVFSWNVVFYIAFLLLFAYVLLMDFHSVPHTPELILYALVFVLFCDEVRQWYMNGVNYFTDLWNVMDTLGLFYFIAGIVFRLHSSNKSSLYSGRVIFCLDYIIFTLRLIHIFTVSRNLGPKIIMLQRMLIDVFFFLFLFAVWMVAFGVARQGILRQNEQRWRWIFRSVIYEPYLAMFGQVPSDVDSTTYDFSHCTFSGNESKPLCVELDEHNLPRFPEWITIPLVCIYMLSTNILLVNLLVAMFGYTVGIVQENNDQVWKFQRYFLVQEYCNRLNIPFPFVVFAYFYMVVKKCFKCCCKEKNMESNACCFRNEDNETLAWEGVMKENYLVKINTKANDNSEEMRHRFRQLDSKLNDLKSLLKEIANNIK
T3 sequence (O35433 whole entry): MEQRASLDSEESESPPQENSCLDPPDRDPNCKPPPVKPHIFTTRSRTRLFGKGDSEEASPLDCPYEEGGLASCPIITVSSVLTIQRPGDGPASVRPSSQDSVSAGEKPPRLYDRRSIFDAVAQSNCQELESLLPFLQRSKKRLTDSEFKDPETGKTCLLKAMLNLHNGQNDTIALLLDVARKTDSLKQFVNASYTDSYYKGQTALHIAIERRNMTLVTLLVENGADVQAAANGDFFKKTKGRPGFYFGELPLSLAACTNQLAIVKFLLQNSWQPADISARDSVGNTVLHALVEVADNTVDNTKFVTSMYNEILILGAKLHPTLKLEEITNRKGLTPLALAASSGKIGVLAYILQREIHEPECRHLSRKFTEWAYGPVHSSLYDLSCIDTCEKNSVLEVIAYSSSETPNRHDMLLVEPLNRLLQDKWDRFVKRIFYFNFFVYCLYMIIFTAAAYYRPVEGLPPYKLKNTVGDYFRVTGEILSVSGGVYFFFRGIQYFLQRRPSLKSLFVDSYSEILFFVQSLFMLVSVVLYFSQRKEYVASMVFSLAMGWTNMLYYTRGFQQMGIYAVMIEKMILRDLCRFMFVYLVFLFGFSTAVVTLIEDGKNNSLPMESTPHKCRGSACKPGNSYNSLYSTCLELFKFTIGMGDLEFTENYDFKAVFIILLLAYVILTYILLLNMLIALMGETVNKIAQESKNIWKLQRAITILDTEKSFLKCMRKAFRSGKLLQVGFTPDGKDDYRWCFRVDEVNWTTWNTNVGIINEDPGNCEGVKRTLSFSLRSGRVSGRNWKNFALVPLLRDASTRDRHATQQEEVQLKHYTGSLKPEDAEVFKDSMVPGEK

CC(=Cc1ccc(Cl)cc1)C(C)=NO [Compound 18, (Z)-4-(4-chlorophynyl)-3-methylbut-3-en-2-oxime]
BK-induced heat hyperalgesia [1]: not thermal (heat) behaviours; also recorded: did not block | block of rat TRPA1 (rat TRPA1): blocked | BK-induced mechanical nociceptive behavior [2]: reverses | block of cinnamaldehyde-induced TRPA1 currents in excised patches (TRPA1 [3]): suppressed; also recorded: blocked | inhibition of TRPA1 activation or function (TRPA1 [4]): specifically inhibit TRPA1 activation or function | block of TRPM8 (TRPM8): did not block | cinnamaldehyde-induced nociceptive events (time spent licking and flicking hindpaw, 5 min) [5]: suppresses; also recorded: significantly blocked | block of TRPV1 (TRPV1): did not block | CFA-induced cold hyperalgesia (flicks, licks, paw raises for 10 min) [6]: reverses cold behaviours; also recorded: robust block | block of TRPA1 responses in CHO cells induced by cold (mouse TRPA1): blocked | block of TRPA1 responses in CHO cells induced by pressure (mouse TRPA1): blocked
